According to US10745352B2, “Dual function molecules for histone deacetylase inhibition and ataxia telangiectasia mutated activation and methods of use thereof” (Shuttle Pharmaceuticals, Inc., priority 2015, dated 2020):

Experiments:
[1] = system: ATM; test: ATM activation: phospho-ATM (S1981) ELISA on the nuclear fraction of MCF7 cells; assay type: cell-based, Human; details: 1 μM, time course of 6 hours
Experimental: Several assays were utilized to determine the ability of the compounds of the invention to activate ATM over a period of time. […] The fold change in phospho-ATM was measured over a period of time. Accordingly, the increase in phospho-ATM indicates activation of ATM by the compounds of the invention.
In certain examples, the activity of the compounds of the invention was compared to additional modulators of ATM, such as […] (a specific ATM inhibitor); dimethylsulfoxide (DMSO) (a solvent); 3,3′-diindolylmethane (DIM) (an ATM activator); and irradiation (irradiation may result in the generation of phospho-ATM due to DNA damage). DIM was not used as a comparative compound in Example 5.
Materials: MCF7 Cells; Complete RPMI media: RPMI, 10% Fetal Bovine Serum (FBS), 5% L-glutamine, 5% Pen/Strep; R&D Systems Human P-ATM (S1981) DuoSet IC ELISA Assay Kit; Plate sealers; Normal mouse serum (heat inactivated 56 C for 30 min); 96-well ELISA microtiter plate; 450 nm Plate Reader; 60 mm dishes; Disposable pipettes; Pipet-aid; Pipette tips; Micro-pipetter; Cell scraper; Distilled water; Pierce NE-PER Nuclear and Cytoplasmic Extraction Reagent; Pierce Protease and Phosphotase Inhibitor Mini Tablets; KU-55933; DIM (not used in Example 5); Dimethyl sulfoxide (DMSO); Phosphate buffered saline (PBS); and Sterile micro-tubes and conical tubes; Hemocytometer; Microscope; Micro-centrifuge.
MCF7 Cells were grown in Complete RPMI media and 10^6 cells were seeded into 60 mm dishes. Dishes were then divided into duplicate treatments the following day. Control samples were treated with 3 ml RPMI media for 1 hr. Vehicle samples were treated with 3 ml RPMI media plus 0.1% DMSO for 1 hr. Negative control samples were treated with 10 μM KU-55933 in 3 ml RPMI media plus 0.1% DMSO for 1 Hr. Positive control samples were treated with 0.5 μM DIM in 3 ml RPMI media plus 0.1% DMSO for 30 min. Test Samples were treated with 1 μM of the test compounds (e.g. N-(6-(hydroxyamino)-6-oxohexyl)-1H-indole-2-carboxamide in Example 5) in 3 ml RPMI media plus 0.1% DMSO for 30 min; 1 hr; 2 hrs; 4 hrs; and 6 hrs. At their designated time, samples were harvested on ice using a cell scraper and two washes of 1 ml PBS and kept as a cell pellet on dry ice until all were collected. After all samples were collected they were thawed on ice and separated into cytosolic and nuclear fractions using the Pierce NE-PER Nuclear and Cytoplasmic Extraction Reagent kit with added Pierce protease and phosphotase inhibitor tablet.
After recovery of the separate fractions, the process further included washing cells by suspending the cell pellet with PBS. 1-10×10^6 cells were transferred to a 1.5 mL microcentrifuge tube and a pellet was formed by centrifugation at 500×g for 2-3 minutes. […]

[2] = system: pan-HDACs; test: Pan-HDAC assay (Fluor-de-Lys fluorometric kit, HeLa Nuclear Extract); assay type: biochemical; details: values are average EC50, read-out: EC50 against pan-HDACs
Experimental: Certain compounds of the invention were tested in a pan-HDAC assay to determine the ability of such compounds to inhibit HDAC protein. Specifically, the compounds tested included: N-(6-(hydroxyamino)-6-oxohexyl)-3-methyl-1H-indole-2-carboxamide (SP-1-161) (FIG. 8A); N^1-hydroxy-N^6-(2-(2-methyl-1H-indol-3-yl)ethyl)octanediamide (SP-1-163) (FIG. 8A); (S)—N-(6-(hydroxyamino)-6-oxohexyl)-1-tosylindoline-2-carboxamide (SP-1-169) (FIG. 8B); and (S)-1-((5-(dimethylamino)naphthalene-1-yl)sulfonyl)-N-(6-(hydroxyamino)-6-oxoheyl)indoline-carboxamide (SP-1-171) (FIG. 8B).
The Pan HDAC assay was performed as follows:
Materials: Enzo Fluor-de-Lys HDAC fluorometric activity assay kit; 360 nm excitation 460 nm emission Plate Reader; Disposable pipettes; Pipet-aid; Pipette tips; Micro-pipetter; DMSO; Sterile micro-tubes and conical tubes; and Micro-centrifuge.
Test compounds and control preparation: All test compounds' stock solutions were made in 100% DMSO. Test compound dilutions were made in HDAC Assay buffer with a final concentration of DMSO less than or equal to 1%. Vehicle control was HDAC Assay buffer with 1% DMSO.
The reagents for the assay were prepared as follows:
1. All kit components were defrosted and these, and all dilutions described below, were kept on ice until use. All undiluted kit components are stable for several hours on ice.
2. A sufficient amount of HeLa Nuclear Extract (BML-KI140) or other HDAC source diluted in Assay Buffer (BML-KI143) was prepared to provide for the assays that were performed (# of wells×15 μl). A 30-fold dilution of the HeLa Extract means that 15 μl contains 0.5 μl of the undiluted Extract, an appropriate amount to use per well.
3. Dilution(s) of Trichostatin A and/or Test Inhibitors were prepared in Assay Buffer (BML-KI143). Since 10 μl were used per well, and since the final volume of the HDAC reaction was 50 μl, these inhibitor dilutions were 5× their final concentration.
4. Dilution(s) of the Fluor de Lys® Substrate (BML-KI104; 50 mM) were prepared in Assay Buffer (BML-KI143) that were 2× the desired final concentration(s). For inhibitor screening, substrate concentrations at or below the Km are recommended. Twenty-five μL were used per well. Initial dilutions of 25-fold or greater in Assay Buffer (2.0 mM or less) yielded stable solutions (see NOTE on freezing and thawing below). Rapid mixing and dilution into room temperature buffer helped to prevent precipitation at high substrate concentration. NOTE: Freezing/thawing of Fluor de Lys® Substrate solutions in Assay Buffer may cause precipitation of the Substrate. Dilute only amount necessary for one day's experiment.
5. Shortly before use (<30 min.), sufficient Fluor de Lys® Developer was prepared for the assays to be performed (50 μl per well). […]

EC50 [2] [nM] | SMILES | ATM activation (level of ATM phosphorylation, phospho-ATM) [1] | ATM activation (level of ATM phosphorylation, phospho-ATM) ([1]; listed as 2,3-dimethylindole)
– | Cc1[nH]c2ccccc2c1C [2,3-dimethyl indole, reference compound] | significant increase in ATM phosphorylation | significant increase in ATM activation
112 | Cc1[nH]c2ccccc2c1CCNC(=O)CCCCCCC(=O)NO [SP-1-163, N^1-hydroxy-N^6-(2-(2-methyl-1H-indol-3-yl)ethyl)octanediamide] | exemplary ATM activation activity | –
265 | Cc1ccc(S(=O)(=O)N2c3ccccc3C[C@H]2C(=O)NCCCCCC(=O)NO)cc1 [SP-1-169, (S)—N-(6-(hydroxyamino)-6-oxohexyl)-1-tosylindoline-2-carboxamide] | – | –
25.3 | CN(C)c1cccc2c(S(=O)(=O)N3c4ccccc4C[C@H]3C(=O)NCCCCCC(=O)NO)cccc12 [SP-1-171, (S)-1-((5-(dimethylamino)naphthalene-1-yl)sulfonyl)-N-(6-(hydroxyamino)-6-oxoheyl)indoline-carboxamide] | – | –
